Read-outs that look alike come from different tables or passages of the source.
Legend:
[1] = target: recombinant human His-tagged MDM2 protein (residues 1-118) (Homo sapiens (Human), UniProt Q00987); assay: Fluorescence-polarization MDM2 binding assay;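 further: fluorescence polarization read after three hours of incubation in potassium phosphate buffer containing bovine gamma globulin and Triton X-100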
[2] = system: Isogenic HCT-116 colon cancer cell lines; assay: cells; assay type: cell-based;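 further: cells grown in 96-well plates in McCoy's 5A medium with 10% FBS, exposed to compound for 4 days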
Method: Cells were seeded in 96-well flat bottom cell culture plates at a density of 2−3×10^3 cells/well with compounds and incubated for 4 days.

[3] = system: cancer cell lines with wild-type p53 / mutated or deleted p53 (ATCC); assay: Cell growth assay (WST-8), other cancer cell lines; assay type: cell-based
[4] = In vitro microsomal stability, rat; assay type: in vitro ADME; settings: for Microsomal stability, % remaining: Rat Microsome, same batch
[5] = In vitro microsomal stability, human; assay type: in vitro ADME; settings: for Microsomal stability, % remaining: Human Microsome, same batch
[6] = Table 19B, read-out: Binding affinities to MDM2 protein as determined by FP based assay IC50
[7] = Homo sapiens, HCT-116, read-out: Inhibition of cell growth IC50, HCT116 p53 KO, Table 19B, HCT116 p53 KO
[8] = Homo sapiens, HCT-116, read-out: Inhibition of cell growth IC50, HCT116 p53 WT, Table 19B, HCT116 p53 WT
[9] = Homo sapiens, LNCaP, Table 19B, LNCaP cells, read-out: Inhibition of cell growth IC50, LNCaP
[10] = Homo sapiens, PC-3, Table 19B, PC3 cells, read-out: Inhibition of cell growth IC50, PC3
[11] = Table 19A, FP binding assay, read-out: MDM2 IC50

Chain of recombinant human His-tagged MDM2 protein (residues 1-118) (Q00987 1-118): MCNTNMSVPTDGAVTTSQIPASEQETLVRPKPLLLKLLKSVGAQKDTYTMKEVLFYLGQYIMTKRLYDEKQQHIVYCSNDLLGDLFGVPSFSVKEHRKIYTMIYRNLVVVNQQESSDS

SMILES: CC(C)CC(C)(C)C[C@H]1N(C)[C@@H](C(=O)NCC[C@H](O)CO)[C@H](c2cccc(Cl)c2F)[C@@]12C(=O)Nc1cc(Cl)c(F)cc12 [MI-733]
- IC50 [1, 6]: > 1 µM
- IC50 [2, 7]: 8.7 ± 0.9 µM
- IC50 [2, 8]: 2.4 ± 0.3 µM
- IC50 [3, 9]: 2.2 ± 0.5 µM
- IC50 [3, 10]: 5.4 ± 1.7 µM

SMILES: CC(C)(C)C[C@@H]1[C@]2(C(=O)Nc3cc(Cl)c(F)cc32)[C@@H](c2cccc(Cl)c2)[C@H](C(=O)NCC[C@H](O)CO)[N+]1(C)C [MI-719]
- IC50 [1, 6]: > 10 µM
- IC50 [2, 7]: > 100 µM
- IC50 [2, 8]: 58.6 ± 14.9 µM
- IC50 [3, 9]: 51.2 µM
- IC50 [3, 10]: > 100 µM

SMILES: CC(C)(C)C[C@@H]1N[C@@H](C(=O)N[C@H]2C[C@@](C)(O)C2)[C@H](c2cccc(Cl)c2F)[C@]12C(=O)Nc1c2ccc(Cl)c1F
- IC50 [1, 11]: < 0.1 µM

SMILES: CC(C)(C)C[C@H]1N[C@@H](C(=O)NC2CC(O)C2)[C@H](c2cccc(Cl)c2F)[C@@]12C(=O)Nc1cc(Cl)ccc12 (some centres unmarked) [MI-519-60]
- IC50 ([2]; Homo sapiens, HCT-116, read-out: HCT-116 (p53 wild-type) IC50): < 3 µM
- cell growth inhibition (in words) [3]: more potent than its epimer MI-519-63
- IC50 ([3]; Homo sapiens, LNCaP, read-out: LNCAP (p53 wild-type) IC50): < 3 µM
- IC50 ([3]; Homo sapiens, SJSA-1, read-out: SJSA-1 (p53 wild-type) IC50): < 3 µM
- % of compound remaining when incubated in rat liver microsomes with NADPH ([4]; 0 min): 100%
- % of compound remaining when incubated in rat liver microsomes with NADPH ([4]; 5 min): 79.93%
- % of compound remaining when incubated in rat liver microsomes with NADPH ([4]; 10 min): 63.72%
- % of compound remaining when incubated in rat liver microsomes with NADPH ([4]; 15 min): 51.52%
- % of compound remaining when incubated in rat liver microsomes with NADPH ([4]; 30 min): 40.6%
- % of compound remaining when incubated in rat liver microsomes with NADPH ([4]; 45 min): 35.16%
- % of compound remaining when incubated in rat liver microsomes with NADPH ([4]; 60 min): 29.15%
- % of compound remaining when incubated in human liver microsomes with NADPH ([5]; 0 min): 100%
- % of compound remaining when incubated in human liver microsomes with NADPH ([5]; 5 min): 83.26%
- % of compound remaining when incubated in human liver microsomes with NADPH ([5]; 10 min): 68.14%
- % of compound remaining when incubated in human liver microsomes with NADPH ([5]; 15 min): 51.54%
- % of compound remaining when incubated in human liver microsomes with NADPH ([5]; 30 min): 49.28%
- % of compound remaining when incubated in human liver microsomes with NADPH ([5]; 45 min): 40.97%
- % of compound remaining when incubated in human liver microsomes with NADPH ([5]; 60 min): 37.55%

SMILES: CC(C)(C)C[C@H]1N[C@@H](C(=O)NC2CN(CC(F)F)C2)[C@H](c2cccc(Cl)c2F)[C@@]12C(=O)Nc1cc(Cl)ccc12 [MI-519-72]
- IC50 ([1]; Table 19D, read-out: MDM2 Binding Affinities IC50): < 1 µM

SMILES: CC(O)C(O)CCNC(=O)[C@@H]1N[C@H](CC(C)(C)C)[C@]2(C(=O)Nc3cc(Cl)c(F)cc32)[C@H]1c1cccc(Cl)c1 (some centres unmarked) [MI-519-31]
- IC50 ([2]; read-out: HCT-116 (p53-/-) IC50, Table 19A, HCT-116 p53-/-, cell growth): 20.1 ± 2.5 µM
- IC50 ([2]; read-out: HCT-116 (p53 wild-type) IC50, Table 19A, HCT-116 p53 wild-type, cell growth): 2 ± 0.8 µM
- IC50 ([3]; Table 19A, LNCAP cells, p53 wild-type, cell growth, read-out: LNCAP (p53 wild-type) IC50): 1.3 ± 0.2 µM
- IC50 ([3]; Table 19A, PC-3 cells, deleted p53, cell growth, read-out: PC-3 (deleted p53) IC50): 24.7 ± 2 µM
- % of compound remaining when incubated in rat liver microsomes at indicated time (min) ([4]; 0 min): 100%
- % of compound remaining when incubated in rat liver microsomes with NADPH ([4]; 0 min): 100.00%
- % of compound remaining when incubated in rat liver microsomes at indicated time (min) ([4]; 4 min): 80.1%
- % of compound remaining when incubated in rat liver microsomes with NADPH ([4]; 5 min): 80.22%
- % of compound remaining when incubated in rat liver microsomes at indicated time (min) ([4]; 6 min): 69.4%
- % of compound remaining when incubated in rat liver microsomes at indicated time (min) ([4]; 10 min): 54.3%
- % of compound remaining when incubated in rat liver microsomes with NADPH ([4]; 10 min): 65.69%
- % of compound remaining when incubated in rat liver microsomes at indicated time (min) ([4]; 15 min): 47.7%
- % of compound remaining when incubated in rat liver microsomes with NADPH ([4]; 15 min): 57.57%
- % of compound remaining when incubated in rat liver microsomes at indicated time (min) ([4]; 30 min): 31%
- % of compound remaining when incubated in rat liver microsomes with NADPH ([4]; 30 min): 42.91%
- % of compound remaining when incubated in rat liver microsomes with NADPH ([4]; 45 min): 34.31%
- % of compound remaining when incubated in rat liver microsomes with NADPH ([4]; 60 min): 32.81%
- Microsomal stability, % remaining ([4]; 0 min): 100.00%
- Microsomal stability, % remaining ([4]; 5 min): 80.22%
- Microsomal stability, % remaining ([4]; 10 min): 65.69%
- Microsomal stability, % remaining ([4]; 15 min): 57.57%
- Microsomal stability, % remaining ([4]; 30 min): 42.91%
- Microsomal stability, % remaining ([4]; 45 min): 34.31%
- Microsomal stability, % remaining ([4]; 60 min): 32.81%
- % of compound remaining when incubated in rat liver microsomes with NADPH ([4]; rat liver microsomes, NADPH, 0 min): 100.00%
- % of compound remaining when incubated in rat liver microsomes with NADPH ([4]; rat liver microsomes, NADPH, 5 min): 80.22%
- % of compound remaining when incubated in rat liver microsomes with NADPH ([4]; rat liver microsomes, NADPH, 10 min): 65.69%
- % of compound remaining when incubated in rat liver microsomes with NADPH ([4]; rat liver microsomes, NADPH, 15 min): 57.57%
- % of compound remaining when incubated in rat liver microsomes with NADPH ([4]; rat liver microsomes, NADPH, 30 min): 42.91%
- % of compound remaining when incubated in rat liver microsomes with NADPH ([4]; rat liver microsomes, NADPH, 45 min): 34.31%
- % of compound remaining when incubated in rat liver microsomes with NADPH ([4]; rat liver microsomes, NADPH, 60 min): 32.81%
- half-life ([4]; rat, liver microsomes, rat liver microsomes with NADPH): 18.7 min
- % of compound remaining when incubated in human liver microsomes with NADPH ([5]; 0 min): 100.00%
- % of compound remaining when incubated in human liver microsomes with NADPH ([5]; 5 min): 78.11%
- % of compound remaining when incubated in human liver microsomes with NADPH ([5]; 10 min): 58.15%
- % of compound remaining when incubated in human liver microsomes with NADPH ([5]; 15 min): 45.42%
- % of compound remaining when incubated in human liver microsomes with NADPH ([5]; 30 min): 22.75%
- % of compound remaining when incubated in human liver microsomes with NADPH ([5]; 45 min): 13.25%
- % of compound remaining when incubated in human liver microsomes with NADPH ([5]; 60 min): 8.56%
- Microsomal stability, % remaining ([5]; 0 min): 100.00%
- Microsomal stability, % remaining ([5]; 5 min): 78.11%
- Microsomal stability, % remaining ([5]; 10 min): 58.15%
- Microsomal stability, % remaining ([5]; 15 min): 45.42%
- Microsomal stability, % remaining ([5]; 30 min): 22.75%
- Microsomal stability, % remaining ([5]; 45 min): 13.25%
- Microsomal stability, % remaining ([5]; 60 min): 8.56%
- % of compound remaining when incubated in human liver microsomes with NADPH ([5]; human liver microsomes, NADPH, 0 min): 100.00%
- % of compound remaining when incubated in human liver microsomes with NADPH ([5]; human liver microsomes, NADPH, 5 min): 78.11%
- % of compound remaining when incubated in human liver microsomes with NADPH ([5]; human liver microsomes, NADPH, 10 min): 58.15%
- % of compound remaining when incubated in human liver microsomes with NADPH ([5]; human liver microsomes, NADPH, 15 min): 45.42%
- % of compound remaining when incubated in human liver microsomes with NADPH ([5]; human liver microsomes, NADPH, 30 min): 22.75%
- % of compound remaining when incubated in human liver microsomes with NADPH ([5]; human liver microsomes, NADPH, 45 min): 13.25%
- % of compound remaining when incubated in human liver microsomes with NADPH ([5]; human liver microsomes, NADPH, 60 min): 8.56%
- half-life ([5]; human, liver microsomes, human liver microsomes with NADPH): 13 min

SMILES: CC(C)(C)C[C@H]1N[C@@H](C(=O)NC2CCN(S(=O)(=O)C(F)(F)F)CC2)[C@H](c2cccc(Cl)c2F)[C@@]12C(=O)Nc1cc(Cl)ccc12 [MI-780]
- IC50 [1, 11]: < 3 µM
- IC50 ([3]; Homo sapiens, SJSA-1, Table 19A, SJSA-1 cells, p53 wild-type, cell growth, read-out: SJSA-1 (p53 wild-type) IC50): < 5 µM
